The text below walks through data of patent US11718610B2, “Compounds containing benzosultam” (MEDSHINE DISCOVERY INC., priority 2020, dated 2023).

In one data set the test system is Calu-6 cells. The data set can be described thus: Calu-6 (Kras Q61K) antiproliferative activity experiment (CellTiterGlo). It is filed as cell-based, human. The note with it: cultured three days. On the procedure: Experimental Embodiment 1: Calu-6 (Kras^Q61K) Antiproliferative Activity Experiment
(1) cell culture medium: 88% RPMI-1640, 10% fetal bovine serum, 1% L-glutamine and 1% penicillin-streptomycin;
(2) culture medium, trypsin and DPBS were preheated in a 37° C. water bath;
(3) the original culture medium was removed in the cell culture flask and washed once with 6 mL of PBS;
(4) 3.5 mL of trypsin was added to the cell culture flask, and the cell culture flask was shaken gently, and the trypsin was removed after full contact with the cell, and then the culture flask was placed into a 37° C. incubator containing 5% CO2 for about 1 minute;
(5) the cells were resuspended with 10 mL of cell culture medium, and about 0.6 mL of cell suspension (ViCell XR) was taken out for counting;
(§1) (6) the cell suspension was diluted with culture medium to a cell density required for plating of 2.5×10^4 cells per mL;
(7) 100 μL of PBS was added to each well around the cell plate, and 40 μL of cell suspension was added to the other wells, and placed in a 37° C. incubator containing 5% CO2 for overnight culture.
(§2) (8) The required cell amount and culture medium were taken based on the new T75 culture flask for continued culture.
(§3) (1) the compound to be tested was prepared into […] solution with DMSO;
(2) 9 μL of the compound was taken and added to Echo shallow well plate (Labcyte, #LP-0200), and the shallow well plate was centrifuged at 1000 rpm for 10 seconds;
(3) DPBS at the periphery of the cell plate was sucked out;
(4) the compound was gradient diluted and administrated with Echo, and 10 concentration gradients of each compound were diluted, and 100 nL of the diluent was added to the 384 cell plate separately, and then the cell plate was put back to the incubator and cultured for three days;
(5) then 100 μL of DPBS was added to the periphery of the cell plate.
(1) CTG was added and the plate was read: 20 μL of CellTiterGlo was added to each well of the cell plate, and the cell plate was shaken in the dark for 10 min. and the plate was read on Envision.
On the technique in general: ATP-based viability assays read luminescence as a measure of living cells.

Data set [1] concerns ERK phosphorylation in Calu-6 cells. The data set can be described thus: Calu-6 (Kras Q61K) ERK phosphorylation inhibition experiment (HTRF). The format is cell-based, human. Conditions: 1 hour incubation with compound. On the procedure: Experimental Embodiment 5: Calu-6 (Kras^Q61K) ERK Phosphorylation Inhibition Experiment
1) the cells were resuscitated and cultured to logarithmic growth phase, digested with trypsin, seeded in 96-well plates with 30000 cells per well, and incubated overnight in an incubator.
2) 1 μL of gradient compound dissolved with DMSO was added to a 96-well plate and placed back into an incubator to incubate for 1 hour.
3) The cell plates were removed out, and the culture medium was poured off, and 50 μL of cell lysate (with 1% blocking peptide) was added to each well.
4) The lysate plate was mixed at 500 rpm and incubated and lysed at room temperature for 30 minutes.
5) The antibody mixture in the kit was prepared at a ratio of 1:1:38.
6) 16 μL of cell lysate was transferred to the HTRF plate per well, then the 4 μL of the configured antibody mixture was added thereto.
7) After incubation overnight, the plate was read with Envision, and the fitted curve was obtained according to the ratio (the ratio of fluorescence intensity of […]) and the EC50 was calculated according to the four-parameter fitting formula Y=Bottom+(Top−Bottom)/(1+10^((Log EC50−X)*HillSlope)) of Graphpad.
A general note: In TR-FRET formats the signal depends on donor and acceptor labels being close together.

Data set [2] is described as follows: Pharmacokinetics of single intravenous and oral administration in mice. It is filed as in vivo. The note with it: single oral administration, 50 mg/kg/day; for Cmax: read-out: Maximum plasma drug concentration Cmax; for Tmax: read-out: Peak time Tmax. On the procedure:
Experimental Embodiment 6: Pharmacokinetics Study of Single Intravenous and Oral Administration in Mice and Dogs
This experiment was aimed to study the pharmacokinetics of the test compound in mice and dogs in vivo after a single oral administration of the compound.
After intravenous or oral administration, blood samples were collected and the actual blood collection time was recorded. After the blood sample was collected, the sample was immediately transferred to a labeled centrifuge tube containing K2-EDTA, and then the plasma was taken after centrifugation. The plasma was transferred to a precooled centrifuge tube, quickly frozen in dry ice, and stored in an ultra-low temperature refrigerator at −70±10° C. until LC-MS/MS analysis.
Pharmacokinetic software was used to process the plasma drug concentration data of the compound with […] model. The peak concentration (Cmax) and peak time (Tmax), as well as the end time of quantification, were obtained directly from the plasma drug concentration-time graph. The following pharmacokinetic parameters were calculated by logarithmic linear trapezoidal method: half-life (T1/2), apparent distribution volume (Vdss) and clearance rate (Cl), and the area under the time-plasma concentration curve from 0 to the end time point (AUC0-last).

Another data set deals with HCT116 cells. The data set can be described thus: HCT116 (Kras G13D) antiproliferative activity experiment (CellTiter Glo). The format is cell-based. Conditions: Homo sapiens, HCT-116, 72 h, cultured 3 days. On the procedure: Experimental Embodiment 2: HCT116 (Kras^G13D) Antiproliferative Activity Experiment
(1) cell culture medium: 89% Mc′Coy 5A, 10% fetal bovine serum and 1% penicillin-streptomycin;
(2) culture medium and trypsin were preheated in a 37° C. water bath;
(3) the culture medium was removed in the cell culture flask and washed once with 1 mL of trypsin;
(4) 1 mL of trypsin was added to the cell culture flask, and the cell culture flask was shaken gently, and the trypsin was removed after full contact with the cell, and then the culture flask was placed into a 37° C. incubator containing 5% CO2 for about 1 minute;
(5) the cells were resuspended with 2 mL of cell culture medium, and about 0.01 mL of cell suspension was taken out for counting;
as §1
(7) 100 μL of culture medium was added to each well around the cell plate, and 80 μL of cell suspension was added to the other wells, and placed in a 37° C. incubator containing 5% CO2 for overnight culture.
as §2, §3
(2) 9 concentration gradients and 3-fold dilutions were performed on the compounds, that is, a double-duplicate experiment was set from 6 mmol to 2.7 μmol, and 78 μL of culture medium was added to the middle plate, and then 2 μL of gradient diluted compound per well was transferred to the middle plate according to the corresponding position, and after mixing, 20 μL per well was transferred to the cell plate, and the final concentration of the compound transferred to the cell plate was 30 μmol to 13.7 nmol. The cell plate was placed in a carbon dioxide incubator and cultured for another 3 days.
(1) CTG was added and the plate was read: 20 μL of CellTiter Glo was added to each well of the cell plate, and the cell plate was shaken in the dark for 10 min;
(2) plates were read on Victor Nivo.
The equation (Sample-Min)/(Max-Min)*100% was used to convert the original data into inhibition rate, and the IC50 value could be obtained by curve fitting with four parameters (obtained by “log (inhibitor) vs. response—variable slope” mode in GraphPad Prism).

The test system of a further data set is A375 cells. The experiment in a line: A375 (BRAF V600E) antiproliferative activity experiment (CellTiter-glo). The format is cell-based. The note with it: Homo sapiens, A-375, 120 h, cultured 5 days. On the procedure: Experimental Embodiment 3: A375 (BRAF^V600E) Antiproliferative Activity Experiment
Cell line A375 (purchased from Procell). DMEM culture medium, penicillin/streptomycin antibiotics were purchased from Vicente, and fetal bovine serum was purchased from Biosera. CellTiter-glo (cell viability chemiluminescence detection reagent) reagent was purchased from Promega.
A375 cells were seeded in a white 96 well plate with […] of cell suspension per well containing 2000 of A375 cells. The cell plate was placed in a carbon dioxide incubator and cultured overnight. The compound to be tested was diluted 3-fold to the 9th concentration with a pipette, that is, diluted from 6 mmol to 0.91 μmol, and a double-duplicate experiment was set-up, 78 μmol of culture medium was added to the middle plate, then 2 μmol of gradient dilution compound per well was transferred to the middle plate according to the corresponding position, and 20 μmol per well was mixed and transferred to the cell plate. The concentration of the compound transferred to the cell plate ranged from 30 μmol to 4.57 nmol. The cell plate was placed in a carbon dioxide incubator and cultured for 5 days. Another cell plate was prepared, and the signal value was read as the maximum value (max value in the following equation) on the day of administration to participate in data analysis, 25 μmol of cell viability chemiluminescence detection reagent was added to each well of the cell plate and incubated at room temperature for 10 minutes to stabilize the luminescence signal. A multi-marker analyzer reading was used. After the incubation of the cell plate added with the compound was finished, 25 μmol of cell viability chemiluminescence detection reagent was added to each well of the cell plate and incubated at room temperature for 10 minutes to stabilize the luminescence signal. A multi-marker analyzer reading was used.
(§4) The equation (Sample−Min)/(Max−Min)*100% was used to convert the original data into inhibition rate, and the IC50 value could be obtained by curve fitting with four parameters (obtained by “log (inhibitor) vs. response—variable slope” mode in GraphPad Prism).

The subject of a further data set is Colo205 cells. The experiment in a line: Colo205 (BRAF V600E) antiproliferative activity experiment (CellTiter-glo). The format is cell-based. Conditions: Homo sapiens, COLO 205, 72 h, cultured 3 days. On the procedure:
Experimental Embodiment 4: Colo205 (BRAF^V600E) Antiproliferative Activity Experiment
Cell line COLO205 (purchased from Procell), RPMI1640 culture medium, penicillin/streptomycin antibiotics were purchased from Vicente, and fetal bovine serum was purchased from Biosera. CellTiter-glo (cell viability chemiluminescence detection reagent) reagent was purchased from Promega.
COLO205 cells were seeded in a white 96-well plate with […] of cell suspension per well containing 3000 of COLO205 cells. The cell plate was placed in a carbon dioxide incubator and cultured overnight. The compound to be tested was diluted 3-fold to the 9th concentration with a pipette, that is, diluted from […], and a double-duplicate experiment was set-up. 78 μmol of culture medium was added to the middle plate, then 2 μmol of gradient dilution compound per well was transferred to the middle plate according to the corresponding position, and 20 μmol of per well was mixed and transferred to the cell plate. The concentration of the compound transferred to the cell plate ranged from 1 μmol to 0.15 nmol. The cell plate was placed in a carbon dioxide incubator and cultured for 3 days. Another cell plate was prepared, and the signal value was read as the maximum value (max value in the following equation) on the day of administration to participate in data analysis. 25 μmol of cell viability chemiluminescence detection reagent was added to each well of the cell plate and incubated at room temperature for 10 minutes to stabilize the luminescence signal. A multi-marker analyzer reading was used. After the incubation of the cell plate added with the compound was finished, 25 μmol of cell viability chemiluminescence detection reagent was added to each well of the cell plate and incubated at room temperature for 10 minutes to stabilize the luminescence signal. A multi-marker analyzer reading was used.
as §4

Read-outs that look alike come from different tables or passages of the source.

What is called IC50 is the concentration that inhibits the measured activity by half. One may read the Tmax as the time at which the peak concentration occurs.

Turning to `COc1cc(F)cc([C@@H](CO)NC(=O)[C@@H](C)N2Cc3ccc(-c4nc(N[C@@H]5CCOC[C@H]5F)ncc4Cl)cc3S2(=O)=O)c1` [Compound 2], the IC50 with Calu-6 cells (Homo sapiens, Calu-6, 72 h) was 222 nM; in data set [1] (Homo sapiens, Calu-6, 1 h), 13.1 nM.
Regarding `COc1cc(F)cc([C@@H](CO)NC(=O)[C@@H](C)N2Cc3ccc(-c4nc(NC5CCOCC5)ncc4Cl)cc3S2(=O)=O)c1` [Compound 4], the IC50 in the data set with Calu-6 cells came out at 239 nM. Further, in data set [1], the IC50 came out at 6.36 nM. Moreover, in data set [2], the “Peak time Tmax” value came to 1 h and the Cmax came out at 182 µM.
On to `C[C@H](C(=O)N[C@H](CO)c1cc(F)cc(Cl)c1)N1Cc2ccc(-c3nc(NC4CCOCC4)ncc3Cl)cc2S1(=O)=O` [Compound 5], for which the IC50 worked out at 222 nM with Calu-6 cells (Homo sapiens, Calu-6, 72 h) and 6.92 nM in data set [1] (Homo sapiens, Calu-6, 1 h). For the same molecule, the Cmax in data set [2] (mouse, plasma, po) was found to be 90.5 µM. The Tmax in data set [2] (mouse, plasma) is 0.75 h.
As for `COc1cc(F)cc([C@@H](C)NC(=O)[C@@H](CO)N2Cc3ccc(-c4nc(NC5CCOCC5)ncc4Cl)cc3S2(=O)=O)c1` [Compound 6], in the data set on Calu-6 cells (Homo sapiens, Calu-6, 72 h), the IC50 came out at 508 nM.
In the case of `Cc1cccc([C@@H](CO)NC(=O)[C@@H](C)N2Cc3ccc(-c4nc(NC5CCOCC5)ncc4Cl)cc3S2(=O)=O)c1` [Compound 7], the IC50 stood at 210 nM with Calu-6 cells (Homo sapiens, Calu-6, 72 h) and 4.39 nM in data set [1] (Homo sapiens, Calu-6, 1 h).
`C[C@H](C(=O)N[C@H](CO)c1cccc(N(C)C)n1)N1Cc2ccc(-c3nc(NC4CCOCC4)ncc3Cl)cc2S1(=O)=O` [Compound 8] gave an IC50 in the data set on Calu-6 cells (Homo sapiens, Calu-6, 72 h) of 313 nM.
In the case of `COc1cc(F)cc([C@@H](CO)NC(=O)CN2Cc3ccc(-c4nc(NC5CCOCC5)ncc4Cl)cc3S2(=O)=O)c1` [Compound 10], the IC50 stood at 253 nM with Calu-6 cells (Homo sapiens, Calu-6, 72 h) and 3.03 nM in data set [1] (Homo sapiens, Calu-6, 1 h). The Cmax in data set [2] (mouse, plasma, po) is 34.6 µM. Also, the Tmax in data set [2] (mouse, plasma) was 1 h.
For `[2H]C1([2H])CC(Nc2ncc(Br)c(-c3ccc4c(c3)S(=O)(=O)N([C@H](C)C(=O)N[C@H](CO)c3cc(F)cc(OC)c3)C4)n2)CC([2H])([2H])O1` [Compound 12], the IC50 in the data set on HCT116 cells stood at 112 nM; with A375 cells it was 16 nM; in the data set on Colo205 cells it was 21 nM; in data set [1] (Homo sapiens, Calu-6, 1 h), 6.91 nM.
The corresponding values for `COc1cc(F)cc([C@@H](CO)NC(=O)[C@@H](C)N2Cc3ccc(-c4nc(N[C@H]5CCOC[C@H]5F)ncc4Br)cc3S2(=O)=O)c1` [Compound 13] are 138 nM, 17 nM, 21 nM and 7.84 nM.
